Experiment [1] addresses T1, human somatostatin receptor subtype 5 (Homo sapiens, UniProt P35346).
T1 construct: expressed in transfected cells
As to the kind of experiment: cAMP assay for SST5R (inhibition of cAMP in CHO-K1 cells). Type of experiment: cell-based. The following applies: for EC50: inhibition of cAMP via human SST5 receptor, read-out: SST5 potency; for Fold selectivity for SST5 vs SST2: class symbols, SST5 receptor over SST2 receptor. An outline of the steps: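 CHO-K1 cells stably expressing human SSTR5 were treated 20 min at 37 °C with compounds plus 1.6 μM NKH477 in HBSS, 0.5 mM HEPES pH 7.4, 0.1% BSA, 0.2 mM IBMX. Lysate cAMP measured by HTRF against a standard curve; EC50 from cAMP-versus-concentration plots.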
In general terms: Cyclic AMP is a second messenger, typically raised through Gs and lowered through Gi signalling.

Experiment [2] has as its target T2, human somatostatin receptor subtype 2 (Homo sapiens, UniProt P30874).
T2 construct: expressed in transfected cells
As to the kind of experiment: cAMP assay for SST2R (inhibition of cAMP in CHO-K1 cells). The following applies: Table B; inhibition of cAMP via human SST2 receptor; read-out: SST2 potency. It is filed as cell-based. An excerpt:
General overview: All five SSTR subtypes are Gi coupled G-protein coupled receptors (GPCRs) that lead to decreases in intracellular cyclic AMP (cAMP) when activated by an agonist. Therefore, measurement of intracellular cAMP levels can be used to assess whether compounds of the invention are agonists of SSTR subtypes (John Kelly, Troy Stevens, W. Joseph Thompson, and Roland Seifert, Current Protocols in Pharmacology, 2005, 2.2.1-2.2). One example of an intracellular cAMP assay is described below.
cAMP Assay Protocol for SST2R:
Four days prior to the assay, 5,000 Chinese hamster ovary cells (CHO-K1, ATCC #CCL-61) stably expressing the human somatostatin receptor subtype 2 are plated in each well of a 96-well tissue culture-treated plate in Ham's F12 growth media (ThermoFisher #10-080-CM) supplemented with 10% donor bovine serum (Gemini Bio-Products #100-506), 100 U/mL penicillin; 100 μg/mL streptomycin; 2 mM L-glutamine (Gemini Bio-Products #400-110) and 0.2 mg/mL hygromycin B (GoldBio #31282-04-9). The cells are cultured at 37° C., 5% CO2 and 95% humidity. On the day of the assay, the media is aspirated and the cells are treated with 50 μL of 1.6 μM NKH477 (Sigma #N3290) plus various dilutions of compounds of the invention in assay buffer [1× Hank's Balanced Salt Solution (ThermoFisher #SH3058802), 0.5 mM HEPES pH 7.4, 0.1% bovine serum albumin, 0.2 mM 3-Isobutyl-1-methylxanthine (IBMX, VWR #200002-790)]. The cells are incubated for 20 minutes at 37° C. […] The cells are treated with 50 μL of lysis buffer (HRTF cAMP kit, Cisbio). The lysate is transferred to 384-well plates and cAMP detection and visualization antibodies are added and incubated for 1-24 hours at room temperature. The time-resolved fluorescent signal is read with a Tecan M1000Pro multiplate reader. The intracellular cAMP concentrations are calculated by regression to a standard curve and are plotted vs. the concentration of the compounds of the invention and the EC50 of the compounds are calculated using standard methods. All data manipulations are in GraphPad Prism v6 or v7.

Like-named read-outs stand apart in the source and are kept apart here.

T2 sequence (P30874 whole entry): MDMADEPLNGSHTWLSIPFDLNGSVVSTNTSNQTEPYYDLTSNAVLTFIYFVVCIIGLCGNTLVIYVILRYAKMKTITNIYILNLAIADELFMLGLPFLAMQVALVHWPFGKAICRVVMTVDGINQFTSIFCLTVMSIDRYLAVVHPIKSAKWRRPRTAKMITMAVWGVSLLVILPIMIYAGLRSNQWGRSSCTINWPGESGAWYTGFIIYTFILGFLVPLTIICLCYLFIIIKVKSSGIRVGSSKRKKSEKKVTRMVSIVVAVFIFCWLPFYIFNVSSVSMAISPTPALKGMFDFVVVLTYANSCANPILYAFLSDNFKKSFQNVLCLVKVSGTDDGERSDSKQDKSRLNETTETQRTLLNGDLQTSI
T1 sequence (P35346 whole entry): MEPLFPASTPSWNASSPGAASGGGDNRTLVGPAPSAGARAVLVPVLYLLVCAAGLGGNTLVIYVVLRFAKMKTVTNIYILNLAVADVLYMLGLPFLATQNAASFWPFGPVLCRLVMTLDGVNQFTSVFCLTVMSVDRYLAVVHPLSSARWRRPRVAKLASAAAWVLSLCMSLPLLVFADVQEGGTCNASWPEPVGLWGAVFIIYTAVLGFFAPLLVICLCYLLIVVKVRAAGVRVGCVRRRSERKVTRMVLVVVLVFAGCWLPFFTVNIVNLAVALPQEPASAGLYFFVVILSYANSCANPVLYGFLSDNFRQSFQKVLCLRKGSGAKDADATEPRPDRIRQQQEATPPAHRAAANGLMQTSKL

Consider `C[C@]1(N)CCN(c2c(C(=O)NC34CC(C3)C4)cnc(C#N)c2-c2cc(F)cc(F)c2)C1` [1-49, 4-[(3S)-3-amino-3-methylpyrrolidin-1-yl]-N-{bicyclo[1.1.1]pentan-1-yl}-6-cyano-5-(3,5-difluorophenyl)pyridine-3-carboxamide], for which the EC50 in experiment [1] (Table A) was below 10 nM; in experiment [1] (Table B), below 10 nM; in experiment [2] it was 100 to 1000 nM. For the same compound, the “Fold selectivity for SST5 vs SST2” value in experiment [1] (Table B) is recorded as “+++ (+++=>500)”.
Take `C[C@H](NC(=O)c1cnc(C(F)(F)F)c(-c2cc(F)cc(F)c2)c1N1CC[C@H](N)C1)C(F)(F)F` [1-212, 4-[(3S)-3-aminopyrrolidin-1-yl]-5-(3,5-difluorophenyl)-6-(trifluoromethyl)-N-[(2S)-1,1,1-trifluoropropan-2-yl]pyridine-3-carboxamide]: the values for the EC50 in experiment [1] (Table A), in experiment [1] (Table B) and in experiment [2] were below 10 nM, below 10 nM and 100 to 1000 nM, respectively. The “Fold selectivity for SST5 vs SST2” value in experiment [1] (Table B) is on record as “+++ (+++=>500)”.
Consider `COc1cc(C#N)cc(-c2c(C)ncc(C(=O)NC3CC(F)(F)C3)c2N2CC[C@](C)(N)C2)c1` [1-269, 4-[(3S)-3-amino-3-methylpyrrolidin-1-yl]-5-(3-cyano-5-methoxyphenyl)-N-(3,3-difluorocyclobutyl)-6-methylpyridine-3-carboxamide], for which the EC50 was below 10 nM in experiment [1] (Table A), below 10 nM in experiment [1] (Table B) and 100 to 1000 nM in experiment [2]. In experiment [1] (Table B), the “Fold selectivity for SST5 vs SST2” value was “+++ (+++=>500)”.
Consider `CC(NC(=O)c1cnc(C#N)c(-c2cc(F)cc(F)c2)c1N1CC[C@](C)(N)C1)c1ccon1` (stereo partly drawn) [1-132, 4-[(3S)-3-amino-3-methylpyrrolidin-1-yl]-6-cyano-5-(3,5-difluorophenyl)-N-[1-(1,2-oxazol-3-yl)ethyl]pyridine-3-carboxamide], for which the EC50 is below 10 nM in experiment [1] (Table A), below 10 nM in experiment [1] (Table B) and above 1000 nM in experiment [2]. Besides, the “Fold selectivity for SST5 vs SST2” value in experiment [1] (Table B) was “+++ (+++=>500)”.
As to `Cc1cccc2[nH]c(-c3cncc(C(=O)N4CCCC4C(C)C)c3N3CC[C@](C)(N)C3)nc12` (stereo partly drawn) [2-36, (3S)-3-methyl-1-[3-(4-methyl-1H-1,3-benzodiazol-2-yl)-5-[2-(propan-2-yl)pyrrolidine-1-carbonyl]pyridin-4-yl]pyrrolidin-3-amine], the EC50 was below 10 nM in experiment [1] (Table A), below 10 nM in experiment [1] (Table B) and 100 to 1000 nM in experiment [2]. Moreover, the “Fold selectivity for SST5 vs SST2” value in experiment [1] (Table B) is reported as “+++ (+++=>500)”.
Take `C[C@H](NC(=O)c1cnc(OCc2ccccc2)c(-c2cc(F)cc(F)c2)c1N1CC[C@](C)(N)C1)C1CC1` [1-267, 4-[(3S)-3-amino-3-methylpyrrolidin-1-yl]-6-(benzyloxy)-N-[(1S)-1-cyclopropylethyl]-5-(3,5-difluorophenyl)pyridine-3-carboxamide]: the EC50 was below 10 nM in experiment [1] (Table A), below 10 nM in experiment [1] (Table B) and 100 to 1000 nM in experiment [2]. Besides, the “Fold selectivity for SST5 vs SST2” value in experiment [1] (Table B) is given as “+++ (+++=>500)”.
Take `Cc1ncc(C(=O)NC2CCC(F)(F)CC2)c(N2CC[C@H](N)C2)c1-c1cc(F)cc(F)c1` [1-233, 4-[(3S)-3-aminopyrrolidin-1-yl]-N-(4,4-difluorocyclohexyl)-5-(3,5-difluorophenyl)-6-methylpyridine-3-carboxamide]: the EC50 in experiment [1] (Table A) was below 10 nM; in experiment [1] (Table B), below 10 nM; in experiment [2], above 1000 nM. For the same compound, in experiment [1] (Table B), the “Fold selectivity for SST5 vs SST2” value was “+++ (+++=>500)”.
Regarding `C[C@]1(N)CCN(c2c(C(=O)NC3CCC(F)(F)CC3)cncc2-c2cccc(C#N)c2)C1` [1-10, 4-[(3S)-3-amino-3-methylpyrrolidin-1-yl]-5-(3-cyanophenyl)-N-(4,4-difluorocyclohexyl)pyridine-3-carboxamide], the EC50 in experiment [1] (Table A) is 10 to 100 nM; in experiment [1] (Table B), 10 to 100 nM; in experiment [2] it was above 1000 nM. The “Fold selectivity for SST5 vs SST2” value in experiment [1] (Table B) is “++ (++=100 to 499)”.
`C[C@]1(N)CCN(c2c(C(=O)NC3CCC(F)(F)CC3)cncc2-c2cc(F)c(F)c(F)c2)C1` [1-20, 4-[(3S)-3-amino-3-methylpyrrolidin-1-yl]-N-(4,4-difluorocyclohexyl)-5-(3,4,5-trifluorophenyl)pyridine-3-carboxamide]: the EC50 in experiment [1] (Table A) is below 10 nM; in experiment [1] (Table B), below 10 nM; in experiment [2] it was 100 to 1000 nM. Moreover, the “Fold selectivity for SST5 vs SST2” value in experiment [1] (Table B) is “+++ (+++=>500)”.
`C[C@]1(N)CCN(c2c(C(=O)N3C4CC5CC(C4)CC3C5)cncc2-c2nc3cccc(Cl)c3[nH]2)C1` [2-45, (3S)-1-(3-{2-azatricyclo[3.3.1.1^3,7]decane-2-carbonyl}-5-(7-chloro-1H-1,3-benzodiazol-2-yl)pyridin-4-yl)-3-methylpyrrolidin-3-amine]: the values for the EC50 in experiment [1] (Table A), in experiment [1] (Table B) and in experiment [2] were below 10 nM, below 10 nM and 100 to 1000 nM, respectively. In experiment [1] (Table B), the “Fold selectivity for SST5 vs SST2” value is listed as “++ (++=100 to 499)”.
Regarding `Cc1ncc(C(=O)N[C@@H](C)C2CC2)c(N2CC[C@](C)(N)C2)c1-c1cccc(F)c1` [1-124, 4-[(3S)-3-amino-3-methylpyrrolidin-1-yl]-N-[(1S)-1-cyclopropylethyl]-5-(3-fluorophenyl)-6-methylpyridine-3-carboxamide], the EC50 in experiment [1] (Table A) is below 10 nM; in experiment [1] (Table B) it was below 10 nM; in experiment [2] it was 100 to 1000 nM. Further, the “Fold selectivity for SST5 vs SST2” value in experiment [1] (Table B) is reported as “+++ (+++=>500)”.
As for `Cc1ncc(C(=O)N[C@@H](C)C2CC2)c(N2CC[C@H](N)C2)c1-c1cc(F)cc(Cl)c1` [1-272, 4-[(3S)-3-aminopyrrolidin-1-yl]-5-(3-chloro-5-fluorophenyl)-N-[(1S)-1-cyclopropylethyl]-6-methylpyridine-3-carboxamide], the EC50 in experiment [1] (Table A) was below 10 nM; in experiment [1] (Table B), below 10 nM; in experiment [2] it was 100 to 1000 nM. For the same compound, the “Fold selectivity for SST5 vs SST2” value in experiment [1] (Table B) is on record as “+++ (+++=>500)”.
In the case of `N#Cc1ncc(C(=O)NC2CCC(F)(F)CC2)c(N2CC[C@H](N)C2)c1-c1cc(F)cc(F)c1` [1-67, 4-[(3S)-3-aminopyrrolidin-1-yl]-6-cyano-N-(4,4-difluorocyclohexyl)-5-(3,5-difluorophenyl)pyridine-3-carboxamide], the EC50 in experiment [1] (Table A) was below 10 nM; in experiment [1] (Table B), below 10 nM; in experiment [2], above 1000 nM. Also, the “Fold selectivity for SST5 vs SST2” value in experiment [1] (Table B) is on record as “+++ (+++=>500)”.
As to `COc1cc(C#N)cc(-c2c(C)ncc(C(=O)NC3CCC(F)(F)CC3)c2N2CC[C@](C)(N)C2)c1` [1-268, 4-[(3S)-3-amino-3-methylpyrrolidin-1-yl]-5-(3-cyano-5-methoxyphenyl)-N-(4,4-difluorocyclohexyl)-6-methylpyridine-3-carboxamide], the EC50 in experiment [1] (Table A) is below 10 nM; in experiment [1] (Table B), below 10 nM; in experiment [2] it was above 1000 nM. Moreover, in experiment [1] (Table B), the “Fold selectivity for SST5 vs SST2” value is reported as “+++ (+++=>500)”.
For `COc1ncc(C(=O)N[C@@H](C)C(F)(F)F)c(N2CC[C@](C)(N)C2)c1-c1ccc(F)c(F)c1` [1-259, 4-[(3S)-3-amino-3-methylpyrrolidin-1-yl]-5-(3,4-difluorophenyl)-6-methoxy-N-[(2S)-1,1,1-trifluoropropan-2-yl]pyridine-3-carboxamide], the EC50 in experiment [1] (Table A) was below 10 nM; in experiment [1] (Table B), below 10 nM; in experiment [2] it was 10 to 100 nM. Further, the “Fold selectivity for SST5 vs SST2” value in experiment [1] (Table B) is “+++ (+++=>500)”.
In the case of `COc1cc(-c2c(C#N)ncc(C(=O)NCC(C)C)c2N2CC[C@](C)(N)C2)ccn1` [1-270, 4-[(3S)-3-amino-3-methylpyrrolidin-1-yl]-2-cyano-2′-methoxy-N-(2-methylpropyl)-[3,4′-bipyridine]-5-carboxamide], the EC50 in experiment [1] (Table A) was below 10 nM; in experiment [1] (Table B) it was below 10 nM; in experiment [2], above 1000 nM. Besides, the “Fold selectivity for SST5 vs SST2” value in experiment [1] (Table B) is “+++ (+++=>500)”.
For `Cc1cccc2[nH]c(-c3cncc(C(=O)N[C@@H](C)C(F)(F)F)c3N3CC[C@](C)(N)C3)nc12` [2-11, 4-[(3S)-3-amino-3-methylpyrrolidin-1-yl]-5-(4-methyl-1H-1,3-benzodiazol-2-yl)-N-[(2S)-1,1,1-trifluoropropan-2-yl]pyridine-3-carboxamide], the figures for the EC50 in experiment [1] (Table A), in experiment [1] (Table B) and in experiment [2] were below 10 nM, below 10 nM and 10 to 100 nM, respectively. The “Fold selectivity for SST5 vs SST2” value in experiment [1] (Table B) is “+ (+=10 to 99)”.
